Laboratory results published in paper PMC9293752, “Cholenic acid derivative UniPR1331 impairs tumor angiogenesis via blockade of VEGF/VEGFR2 in addition to Eph/ephrin” (Cancer Gene Therapy, 2021).

Biological target: T1, VEGFR2 (Homo sapiens, UniProt P35968)
T1 construct: gene KDR; monomeric recombinant form of the extracellular portion of VEGFR2 fused to Fc
Assay: SPR (BIAcore X100), steady-state Scatchard analysis; supported by VEGF/VEGFR2 ELISA displacement (IC50 […])
Assay type: binding

T1 sequence (P35968 20-764 limits assumed): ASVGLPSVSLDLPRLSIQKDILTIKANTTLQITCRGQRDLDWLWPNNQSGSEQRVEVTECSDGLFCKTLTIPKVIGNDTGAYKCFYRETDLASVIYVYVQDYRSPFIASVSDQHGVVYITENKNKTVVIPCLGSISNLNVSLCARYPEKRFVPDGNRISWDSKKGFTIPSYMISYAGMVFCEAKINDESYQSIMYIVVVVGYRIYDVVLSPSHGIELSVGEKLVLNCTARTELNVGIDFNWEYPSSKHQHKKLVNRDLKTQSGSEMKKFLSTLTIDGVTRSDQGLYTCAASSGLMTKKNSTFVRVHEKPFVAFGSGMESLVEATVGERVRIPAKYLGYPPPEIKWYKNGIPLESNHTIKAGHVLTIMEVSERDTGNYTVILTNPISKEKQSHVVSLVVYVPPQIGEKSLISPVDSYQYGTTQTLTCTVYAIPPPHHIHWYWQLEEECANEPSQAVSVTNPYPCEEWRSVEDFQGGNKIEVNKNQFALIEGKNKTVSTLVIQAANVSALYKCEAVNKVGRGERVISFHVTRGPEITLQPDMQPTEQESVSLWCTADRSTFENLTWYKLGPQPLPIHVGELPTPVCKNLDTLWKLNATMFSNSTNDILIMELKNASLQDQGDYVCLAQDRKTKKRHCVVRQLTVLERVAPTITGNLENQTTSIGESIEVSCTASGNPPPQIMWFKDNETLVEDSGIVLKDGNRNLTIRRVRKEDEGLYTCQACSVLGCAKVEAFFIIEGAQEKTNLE

## C[C@H](CCC(=O)N[C@@H](Cc1c[nH]c2ccccc12)C(=O)O)[C@H]1CC[C@H]2[C@@H]3CC=C4C[C@@H](O)CC[C@]4(C)[C@H]3CC[C@]12C [UniPR1331]
  Kd: 62.2 ± 2.1 µM
